For data set [1], the system named is Rattus norvegicus. The data set is described as follows: Volume of distribution at steady state in rat at 2.1 umol/kg, iv. The settings on record: in vivo. The format is ADME, organism-based.
Data set [2] is described as follows: Lipophilicity, logD of the compound at pH 7.4 by chromatographic method. The format is physicochemical. The conditions noted are these: buffer.
Data set [3] deals with Rattus norvegicus. Nature of the data set: Volume of distribution at steady state in rat at 5 umol/kg, iv. The format is ADME, organism-based. The settings on record: in vivo.

On to `O=c1[nH]c2c(O)ccc([C@@H](O)CN[C@H]3CCC[C@@H]3OCc3ccccc3)c2s1`, for which the Vdss in the data set with Rattus norvegicus [1] amounted to 6.2 mL/min/kg. The molecule also yielded a chromatographic logD in data set [2] of 1.25.

For the molecule `CCc1cc2c(cc1CC)CC(NC[C@H](O)c1ccc(O)c3[nH]c(=O)ccc13)C2` [INDACATEROL], the chromatographic logD in data set [2] came to 1.77. Moreover, the Vdss in the data set on Rattus norvegicus [3] worked out at 4.1 mL/min/kg.

As usually defined, the chromatographic logD is a lipophilicity value derived from retention on a column. Read a high chromatographic logD as higher lipophilicity.
